Measured values published in patent US8933270B2, “Use of docasatrienes, resolvins, and their stable analogs in the treatment of airway diseases and asthma” (The Brigham and Women's Hospital, Inc., priority 2002, dated 2015).

What was measured:
PMN infiltration [1] = test: Zymosan A-induced peritonitis; type: in vivo, FVB mice; settings: for inhibition of PMN/leukocyte infiltration: i.v. bolus before zymosan A, lavage at 2 h
Protocol: (§1) FIG. 5 depicts Bioimpact properties of omega-3-derived Resolvins. A) Human glioma cells: Inhibition of TNF-stimulated IL-1β transcripts DBTRG-05MG cells 10^6/ml were stimulated with 50 ng/ml of human recombinant TNFα for 16 hours to induce expression of IL-1β transcripts. Concentration dependence with COX-2 products: 17-HDHA (n), 13-HDHA (l)and di-/tri-HDHA (n). […] (insets) Results are representative of RT-PCR gels of MG cells exposed to 100 nM of 13-HDHA or 17-HDHA and graphed after normalization of the IL-1β transcripts using GAPDH. B) Influence of eicosanoids and docosanoids on fMLP-induced neutrophil migration across micovascular endothelial monolayers Neutrophils (1×10^6 cells/monolayer) were exposed to vehicle containing buffer, or indicated concentrations of aspirin-triggered LXA4 analog (closed diamonds) 5S,12,18R-triHEPE (closed squares), 17R-HDHA (closed circles) or 13-HDHA (closed triangles) for 15 minutes at 37° C. Neutrophils were then layered on HMVEC monolayers and stimulated to transmigrate by a 10^−8 M fMLP gradient for 1 hr at 37° C. Transmigration was assessed by quantitation of the neutrophil marker myeloperoxidase. Results are presented as mean±SEM number of PMN (n=8-12 monolayers per condition). C) Reduction of PMN in murine peritonitis and skin pouch peritonitis: Compounds (100 ng in 120 μL sterile saline) were injected by intravenous bolus injection into the mouse tail vein and followed by 1 ml zymosan A (1 mg/ml) into the peritoneum. Peritoneal lavages were collected (2 h) and cell types were enumerated.
Human PMN transendothelial migration was quantitated by monitoring myeloperoxidase (MPO) an azurophilic granule marker as in (34, 37). Inflammatory exudates were initiated with intrapouch injection of recombinant mouse TNFα (100 ng/pouch; R&D Systems) into dorsal air pouches (10) of 6-8 wk male FVB mice fed laboratory rodent diet 5001 (Lab Diet, Purina Mills) containing less than 0.25% arachidonic acid, 1.49% EPA and 1.86% DHA followed by ASA (500 μg) at 3.5 h and 300 μg DHA/pouch at 4 h post-TNFα injection. At 6 h (within the resolution phase), pouches were lavaged (3 ml saline) and exudate cells were enumerated Inhibition of TNFα stimulated (100 ng/pouch) PMN infiltration with i.v. tail injection of either 17R-HDHA (as prepared with COX-2 vide infra), 5S,12,18R-HEPE, or a 15-epi-LXA4 analog were determined with pouch lavages taken at 4 h. Peritonitis was performed using 6 to 8-week-old FVB male mice (Charles River Laboratories) fed laboratory Rodent Diet 5001 (Purina Mills) that were anesthetized with isoflurane, and compounds to be tested (125 μl) were administered intravenously. Zymosan A in 1 ml (1 mg/ml) was injected ˜1-1.5 min later in the peritoneum. Each test compound (100 ng/incubation, i.e. 17R-HDHA in ethanol) or vehicle alone was suspended in ˜5 μl and mixed in sterile saline 120 μl. Two hours after the intraperitoneal injections, and in accordance with the Harvard Medical Area Standing Committee on Animals protocol #02570, mice were euthanized and peritoneal lavages rapidly collected for enumeration.
Peritonitis was induced in 6 to 8 week old male FVB mice by peritoneal injection of 1 mg Zymosan A. Compounds 4,17S and 10,17S-diHDHA were injected by intravenous bolus injection, 1.5 minutes before Zymosan A treatment. Two hours after induction of peritonitis, rapid peritoneal lavages were collected and cell type enumeration was performed.

PMN infiltration [2] = test: Zymosan A-induced peritonitis; type: in vivo, FVB mice; settings: dose increased to 200 ng, intravenous bolus
[3] = test system: IL-1β transcripts in DBTRG-05MG cells; test: Inhibition of TNF-stimulated IL-1β transcripts (RT-PCR); type: cell-based, human; settings: Homo sapiens, DBTRG-05MG; 50 ng/ml TNFα, 16 h; read-out: IC50, inhibition of TNFα-induced IL-1β transcripts / cytokine expression
Protocol: as §1, with “C) Reduction of PMN in murine peritonitis and skin pouch peritonitis: Compounds (100 ng in 120 μL sterile saline) were injected by intravenous bolus injection into the mouse tail vein and followed by 1 ml zymosan A (1 mg/ml) into the peritoneum. Peritoneal lavages were collected (2 h) and cell types were enumerated.” left out
Human glioma cells DBTRG-05MG cells (ATCC) were cultured as recommended by ATCC. […] Results were analyzed using the NIH Image program (http://rsb.info.nih.gov/nih-image).

human PMN = test: fMLP-induced neutrophil migration across microvascular endothelial monolayers (MPO); type: cell-based; settings: nM range; 10^-8 M fMLP gradient, 1 hr
Protocol: FIG. 5 depicts Bioimpact properties of omega-3-derived Resolvins. A) Human glioma cells: Inhibition of TNF-stimulated IL-1β transcripts DBTRG-05MG cells 10^6/ml were stimulated with 50 ng/ml of human recombinant TNFα for 16 hours to induce expression of IL-1β transcripts. Concentration dependence with COX-2 products: 17-HDHA (n), 13-HDHA (l)and di-/tri-HDHA (n). […] (insets) Results are representative of RT-PCR gels of MG cells exposed to 100 nM of 13-HDHA or 17-HDHA and graphed after normalization of the IL-1β transcripts using GAPDH. […] Transmigration was assessed by quantitation of the neutrophil marker myeloperoxidase. […]
Human PMN transendothelial migration was quantitated by monitoring myeloperoxidase (MPO) an azurophilic granule marker as in (34, 37). […] At 6 h (within the resolution phase), pouches were lavaged (3 ml saline) and exudate cells were enumerated Inhibition of TNFα stimulated (100 ng/pouch) PMN infiltration with i.v. tail injection of either 17R-HDHA (as prepared with COX-2 vide infra), 5S,12,18R-HEPE, or a 15-epi-LXA4 analog were determined with pouch lavages taken at 4 h. […]

leukocyte infiltration = test: TNFα-induced dorsal air pouch; type: in vivo, FVB mice; settings: i.v. or local (intrapouch) administration, lavage at 4 h
leukotrienes [4] = test: Leukotriene formation by human PMN; type: cell-based; settings: in vitro, n=4, not shown
leukotrienes [5] = test: Leukotriene formation in murine exudates; type: in vivo; settings: n=4, not shown
human recombinant COX-2 = biological target: T1, human recombinant COX-2 (Homo sapiens, UniProt P35354); test: Impact of NSAIDs on COX-2 conversion of DHA; type: biochemical
T1 construct: made in house; host or cells: Sf9 insect cells (microsomal fractions)
T1 sequence (P35354 18-604): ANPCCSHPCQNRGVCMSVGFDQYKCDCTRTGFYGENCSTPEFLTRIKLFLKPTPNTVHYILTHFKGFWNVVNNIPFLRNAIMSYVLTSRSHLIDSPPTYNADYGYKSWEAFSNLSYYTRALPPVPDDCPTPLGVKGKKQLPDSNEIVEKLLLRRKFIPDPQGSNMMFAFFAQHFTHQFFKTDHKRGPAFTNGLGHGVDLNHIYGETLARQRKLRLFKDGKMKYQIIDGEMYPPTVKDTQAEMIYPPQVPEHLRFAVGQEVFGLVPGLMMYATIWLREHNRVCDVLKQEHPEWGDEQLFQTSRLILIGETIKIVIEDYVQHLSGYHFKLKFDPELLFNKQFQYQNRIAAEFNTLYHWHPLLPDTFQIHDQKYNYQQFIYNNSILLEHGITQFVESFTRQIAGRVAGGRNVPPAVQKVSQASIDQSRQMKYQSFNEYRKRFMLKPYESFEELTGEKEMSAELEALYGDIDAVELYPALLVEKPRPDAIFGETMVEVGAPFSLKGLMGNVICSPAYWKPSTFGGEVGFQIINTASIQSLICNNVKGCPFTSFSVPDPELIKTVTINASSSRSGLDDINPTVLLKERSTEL
Protocol: (§2) Human recombinant COX-2 was overexpressed in Sf9 insect cells (ATCC). The microsomal fractions (˜8 μl) were suspended in Tris (100 mM, pH 8.0) as in (35). ASA was incubated (˜2 mM, 37° C., 30 min) with COX-2 before addition of DHA (10 μM), or in some experiments [1-^14C]-labeled DHA (from American Radiolabeled Chemicals, Inc.), and conversions were monitored in parallel using [1^−14C]-labeled C20:4 (with ASA) (as in FIG. 2; also see text).
(§3) Incubations were extracted with deuterium-labeled internal standards (15-HETE and C20:4) for LC-MS-MS analysis as in (33) using a Finnigan LCQ liquid chromatography ion trap tandem mass spectrometer (San Jose, Calif.) equipped with a LUNA C18-2 (150×2 mm×5 μm or 100×2 mm×5 μm) column and a rapid spectra scanning UV diode array detector that monitored UV absorbance ˜0.2 min prior to samples entering the MS-MS. All intact cell incubations and in vivo exudates were stopped with 2 ml cold methanol and kept at −80° C. for >30 minutes. Samples were extracted using C18 solid phase extraction and analyzed using GC-MS (see Table 2) (Hewlett-Packard), thin layer chromatography or tandem liquid chromatography-mass spectrometry (LC-MS-MS). Also, a Chiralcel OB-H column (4.6×250 mm; J. T. Baker) was used to determine R and S alcohol configurations of monohydroxy-PUFA using isocratic mobile phase (hexane:isopropanol; 97.5:2.5, vol:vol, with a 0.6 ml/min flow rate). Detailed procedures for isolation, quantitation and structural determination of lipid-derived mediators were recently reported (36) and used here essentially as reported for elucidation of novel products.
Results are the mean±SEM, n=3. Products were extracted, identified, and quantitated using deuterium internal standards and LC-MS-MS (see Methods).

[6] = test system: thromboxane and prostanoids; test: Thromboxane and prostanoid production in air pouch exudates; type: in vivo, FVB mice; settings: ASA 500 μg per pouch
Description: It is noteworthy that the Lab Diet 5001 used to feed these mice contained 1.86% DHA and 1.49% EPA with <0.25% arachidonic acid (Purina Mills).

ASA-acetylated COX-2 = biological target: T2, ASA-acetylated COX-2 (Homo sapiens, UniProt P35354); test: Substrate conversion by ASA-acetylated COX-2; type: biochemical; settings: C20:4 to 15R-HETE, DHA to 17R-HDHA; mean±S.E.M., n=3
T2 construct: made in house; host or cells: Sf9 insect cells (microsomal fractions), then treated with about 2 mM ASA
T2 sequence (P35354 18-604): T1 sequence (P35354 18-604)
Protocol: as §2
as §3, with “Also, a Chiralcel OB-H column (4.6×250 mm; J. T. Baker) was used to determine R and S alcohol configurations of monohydroxy-PUFA using isocratic mobile phase (hexane:isopropanol; 97.5:2.5, vol:vol, with a 0.6 ml/min flow rate).” left out

CCC=CCC(O)C=CC=CCC=CCC=CC=CC(O)CCC(=O)O (stereo not drawn) [4,17S-diHDHA]
potency relative to comparator at equal dose (PMN infiltration [1]; PMN/leukocyte infiltration, FIG. 16 and FIG. 18): approximately half as potent as 10,17-docosatriene | inhibition of PMN/leukocyte infiltration (PMN infiltration [1]): dose-dependent inhibition | effectiveness relative to 10,17-docosatriene (PMN infiltration [2]): essentially equally effective

CC/C=C\CC(O)/C=C/C=C\C/C=C\C/C=C\C/C=C\CCC(=O)O (stereo not drawn) [17R-HDHA, 17-hydroxy-docosa-4Z,7Z,10Z,13Z,15E,19Z-hexaenoic acid]
IC50 [3]: ~0.05 nM | direct impact on PMN transmigration across endothelial monolayers (human PMN): did not directly inhibit | inhibition of PMN/leukocyte infiltration (PMN infiltration [1]): potent inhibitor | regulation of PMN/leukocyte recruitment into the air pouch (leukocyte infiltration): did regulate in vivo PMN exudate cell numbers | formation of leukotrienes (leukotrienes [4]): prevented formation of leukotrienes | formation of leukotrienes (leukotrienes [5]): prevented formation of leukotrienes

CC(=O)Oc1ccccc1C(=O)O [ASA, aspirin]
% Increase of 17-HDHA (human recombinant COX-2; NSAID incubated 30 min with COX-2, ASA 2 mM, indomethacin 200 μM, acetaminophen 500 μM, NS398 100 μM, mean±SEM, n=3): 97.8 ± 2.0% | inhibition at 2000 µM (human recombinant COX-2; read-out: % Inhibition of 13-HDHA): 85.7 ± 5.6% | in vivo production of thromboxane and prostanoids [6]: completely inhibited

CCCCC/C=C\C/C=C\C/C=C\C/C=C\CCCC(=O)O [C20:4, arachidonic acid]
substrate conversion (ASA-acetylated COX-2): 67%±5%
